From patent US20240327412A1, “FACTOR XIIA INHIBITORS” (KALVISTA PHARMACEUTICALS LIMITED, priority 2021, published 2024)

Biological target: T1, Human Factor XIIa (Homo sapiens, UniProt P00748)
T1 construct: Proteolytic cleavage of FXII to heavy and light chains of FXIIa dramatically increases catalytic activity; purchased Enzyme Research Laboratories
T1 sequence (P00748 373-615 limits assumed): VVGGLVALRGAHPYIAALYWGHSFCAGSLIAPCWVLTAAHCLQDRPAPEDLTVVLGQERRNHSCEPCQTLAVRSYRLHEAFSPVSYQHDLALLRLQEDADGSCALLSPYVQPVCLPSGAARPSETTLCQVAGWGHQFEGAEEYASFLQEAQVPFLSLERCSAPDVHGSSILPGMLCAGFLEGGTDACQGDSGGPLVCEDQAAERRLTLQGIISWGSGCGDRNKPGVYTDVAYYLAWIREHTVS
T1 sequence (P00748 20-372 partner limits assumed): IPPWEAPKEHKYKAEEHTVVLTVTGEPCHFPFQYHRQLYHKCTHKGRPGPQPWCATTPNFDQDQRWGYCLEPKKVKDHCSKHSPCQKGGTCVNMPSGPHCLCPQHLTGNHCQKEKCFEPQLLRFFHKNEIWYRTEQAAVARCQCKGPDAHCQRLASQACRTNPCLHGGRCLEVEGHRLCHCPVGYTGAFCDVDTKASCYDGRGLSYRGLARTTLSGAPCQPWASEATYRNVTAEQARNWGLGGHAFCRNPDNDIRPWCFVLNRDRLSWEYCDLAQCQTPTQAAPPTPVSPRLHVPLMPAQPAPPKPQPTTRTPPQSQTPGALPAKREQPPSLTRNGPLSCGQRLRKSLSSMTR
Test: Determination of FXIIa inhibition (fluorogenic substrate H-DPro-Phe-Arg-AFC, IC50 assay)
Assay type: biochemical
Details: substrate at Km concentration, 25° C.; category scale; read-out: Human FXII IC50 (nm)
In short: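 Human FXIIa incubated at 25° C. with fluorogenic H-DPro-Phe-Arg-AFC at its Km concentration plus varying compound levels. Linear fluorescence increase over 5 min taken as % activity; IC50 is concentration halving uninhibited activity.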

Row | SMILES | IC50 [nM]
1 | Cn1ccc(OCC23CN(C(=O)OC(C)(C)C)C(CNc4cccc5c(N)nccc45)(C2)C3)cc1=O [Example 12027, tert-butyl 1-(((1-aminoisoquinolin-5-yl)amino)methyl)-4-(((1-methyl-2-oxo-1,2-dihydropyridin-4-yl)oxy)methyl)-2-azabicyclo[2.1.1]hexane-2-carboxylate] | 100 to 300
2 | Cn1ccc(OCC23CN(C(=O)Cc4ccccc4)C(CNc4cccc5c(N)nccc45)(C2)C3)cc1=O [Example 12028, 4-((1-(((1-aminoisoquinolin-5-yl)amino)methyl)-2-(2-phenylacetyl)-2-azabicyclo[2.1.1]hexan-4-yl)methoxy)-1-methylpyridin-2(1H)-one] | 10 to 100
3 | Cn1ccc(OCC23CN(c4nccc(-c5ccccc5)n4)C(CNc4cccc5c(N)nccc45)(C2)C3)cc1=O [Example 12031, 4-((1-(((1-aminoisoquinolin-5-yl)amino)methyl)-2-(4-phenylpyrimidin-2-yl)-2-azabicyclo[2.1.1]hexan-4-yl)methoxy)-1-methylpyridin-2(1H)-one] | 100 to 300
4 | Cn1ccc(OCC23CN(C(=O)Cc4ccc5occc5c4)C(CNc4cccc5c(N)nccc45)(C2)C3)cc1=O [Example 12034, 4-((1-(((1-Aminoisoquinolin-5-yl)amino)methyl)-2-(2-(benzofuran-5-yl)acetyl)-2-azabicyclo[2.1.1]hexan-4-yl)methoxy)-1-methylpyridin-2(1H)-one] | 10 to 100
5 | Cn1ccc(OCC23CN(C(=O)c4ccccc4)C(CNc4cccc5c(N)nccc45)(C2)C3)cc1=O [Example 12035, 4-((1-(((1-aminoisoquinolin-5-yl)amino)methyl)-2-benzoyl-2-azabicyclo[2.1.1]hexan-4-yl)methoxy)-1-methylpyridin-2(1H)-one] | 10 to 100
6 | Cc1cc(OCC23CN(C(=O)Cc4ccccc4)C(CNc4cccc5c(N)nccc45)(C2)C3)cc(=O)n1C [Example 12039, 4-((1-(((1-aminoisoquinolin-5-yl)amino)methyl)-2-(2-phenylacetyl)-2-azabicyclo[2.1.1]hexan-4-yl)methoxy)-1,6-dimethylpyridin-2(1H)-one] | 10 to 100
7 | Cn1ccc(OCC23CN(C(=O)Cc4cccc5[nH]ccc45)C(CNc4cccc5c(N)nccc45)(C2)C3)cc1=O [Example 12040, 4-((2-(2-(1H-indol-4-yl)acetyl)-1-(((1-aminoisoquinolin-5-yl)amino)methyl)-2-azabicyclo[2.1.1]hexan-4-yl)methoxy)-1-methylpyridin-2(1H)-one] | 10 to 100
8 | CN(Cc1ccccc1)C(=O)N1CC2(COc3ccn(C)c(=O)c3)CC1(CNc1cccc3c(N)nccc13)C2 [Example 12041, 1-[[(1-Amino-5-isoquinolyl)amino]methyl]-N-benzyl-N-methyl-4-[(1-methyl-2-oxo-4-pyridyl)oxymethyl]-2-azabicyclo[2.1.1]hexane-2-carboxamide] | 1 to 10
9 | COc1cccc(CCC(=O)N2CC3(COc4ccn(C)c(=O)c4)CC2(CNc2cccc4c(N)nccc24)C3)c1 [Example 12042, 4-((1-(((1-aminoisoquinolin-5-yl)amino)methyl)-2-(3-(3-methoxyphenyl)propanoyl)-2-azabicyclo[2.1.1]hexan-4-yl)methoxy)-1-methylpyridin-2(1H)-one] | 10 to 100
10 | Cn1ccc(OCC23CN(C(=O)CCc4cccc(C#N)c4)C(CNc4cccc5c(N)nccc45)(C2)C3)cc1=O [Example 12044, 3-(3-(1-(((1-aminoisoquinolin-5-yl)amino)methyl)-4-(((1-methyl-2-oxo-1,2-dihydropyridin-4-yl)oxy)methyl)-2-azabicyclo[2.1.1]hexan-2-yl)-3-oxopropyl)benzonitrile] | 10 to 100
11 | Cn1ccc(OCC23CN(C(=O)OC(C)(C)C)C(CNc4ccc5cnccc5c4)(C2)C3)cc1=O [Example 12045, tert-butyl 1-((isoquinolin-6-ylamino)methyl)-4-(((1-methyl-2-oxo-1,2-dihydropyridin-4-yl)oxy)methyl)-2-azabicyclo[2.1.1]hexane-2-carboxylate] | 10000 to 40000
12 | Cn1ccc(OCC23CN(C(=O)CCc4cccc5cnccc45)C(CNc4cccc5c(N)nccc45)(C2)C3)cc1=O [Example 12047, 4-((1-(((1-aminoisoquinolin-5-yl)amino)methyl)-2-(3-(isoquinolin-5-yl)propanoyl)-2-azabicyclo[2.1.1]hexan-4-yl)methoxy)-1-methylpyridin-2(1H)-one] | 10 to 100
13 | Cn1ccc(OCC23CN(C(=O)CCc4cccc(C(F)F)c4)C(CNc4cccc5c(N)nccc45)(C2)C3)cc1=O [Example 12048, 4-((1-(((1-aminoisoquinolin-5-yl)amino)methyl)-2-(3-(3-(difluoromethyl)phenyl)propanoyl)-2-azabicyclo[2.1.1]hexan-4-yl)methoxy)-1-methylpyridin-2(1H)-one] | 10 to 100
14 | Cn1ccc(OCC23CN(C(=O)CCc4cccc(Cl)c4)C(CNc4cccc5c(N)nccc45)(C2)C3)cc1=O [Example 12049, 4-((1-(((1-aminoisoquinolin-5-yl)amino)methyl)-2-(3-(3-chlorophenyl)propanoyl)-2-azabicyclo[2.1.1]hexan-4-yl)methoxy)-1-methylpyridin-2(1H)-one] | 10 to 100
15 | Cn1ccc(OCC23CN(C(=O)CCc4cccc(C(F)(F)F)c4)C(CNc4cccc5c(N)nccc45)(C2)C3)cc1=O [Example 12050, 4-((1-(((1-aminoisoquinolin-5-yl)amino)methyl)-2-(3-(3-(trifluoromethyl)phenyl)propanoyl)-2-azabicyclo[2.1.1]hexan-4-yl)methoxy)-1-methylpyridin-2(1H)-one] | 10 to 100
16 | Cn1ccc(OCC23CN(C(=O)CCc4cccc(C(=O)O)c4)C(CNc4cccc5c(N)nccc45)(C2)C3)cc1=O [Example 12051, 3-(3-(1-(((1-aminoisoquinolin-5-yl)amino)methyl)-4-(((1-methyl-2-oxo-1,2-dihydropyridin-4-yl)oxy)methyl)-2-azabicyclo[2.1.1]hexan-2-yl)-3-oxopropyl)benzoic acid] | 10 to 100

Next, values leading:

Row | IC50 [nM] | SMILES
17 | 10 to 100 | Cn1ccc(OCC23CN(C(=O)CCc4cccc5ncccc45)C(CNc4cccc5c(N)nccc45)(C2)C3)cc1=O [Example 12052, 4-((1-(((1-aminoisoquinolin-5-yl)amino)methyl)-2-(3-(quinolin-5-yl)propanoyl)-2-azabicyclo[2.1.1]hexan-4-yl)methoxy)-1-methylpyridin-2(1H)-one]
18 | 10 to 100 | Cn1ccc(OCC23CN(C(=O)CCc4cccc(Br)c4)C(CNc4cccc5c(N)nccc45)(C2)C3)cc1=O [Example 12053, 4-((1-(((1-aminoisoquinolin-5-yl)amino)methyl)-2-(3-(3-bromophenyl)propanoyl)-2-azabicyclo[2.1.1]hexan-4-yl)methoxy)-1-methylpyridin-2(1H)-one]
19 | 10 to 100 | Cn1ccc(OCC23CN(C(=O)CCc4ccc(=O)[nH]c4)C(CNc4cccc5c(N)nccc45)(C2)C3)cc1=O [Example 12054, 4-((1-(((1-aminoisoquinolin-5-yl)amino)methyl)-2-(3-(6-oxo-1,6-dihydropyridin-3-yl)propanoyl)-2-azabicyclo[2.1.1]hexan-4-yl)methoxy)-1-methylpyridin-2(1H)-one]
20 | 10 to 100 | Cn1ccc(OCC23CN(C(=O)CCc4ccc5cccnc5c4)C(CNc4cccc5c(N)nccc45)(C2)C3)cc1=O [Example 12055, 4-((1-(((1-aminoisoquinolin-5-yl)amino)methyl)-2-(3-(quinolin-7-yl)propanoyl)-2-azabicyclo[2.1.1]hexan-4-yl)methoxy)-1-methylpyridin-2(1H)-one]
21 | 10 to 100 | Cn1ccc(OCC23CN(C(=O)CCc4cccc(OC(F)F)c4)C(CNc4cccc5c(N)nccc45)(C2)C3)cc1=O [Example 12056, 4-((1-(((1-aminoisoquinolin-5-yl)amino)methyl)-2-(3-(3-(difluoromethoxy)phenyl)propanoyl)-2-azabicyclo[2.1.1]hexan-4-yl)methoxy)-1-methylpyridin-2(1H)-one]
22 | 1 to 10 | Cn1ccc(OCC23CN(c4nc5ccccc5o4)C(CNc4cccc5c(N)nccc45)(C2)C3)cc1=O [Example 12057, 4-((1-(((1-Aminoisoquinolin-5-yl)amino)methyl)-2-(benzo[d]oxazol-2-yl)-2-azabicyclo[2.1.1]hexan-4-yl)methoxy)-1-methylpyridin-2(1H)-one]
23 | 10 to 100 | Cn1ccc(OCC23CN(C(=O)NCc4ccccc4F)C(CNc4cccc5c(N)nccc45)(C2)C3)cc1=O [Example 12058, 1-(((1-aminoisoquinolin-5-yl)amino)methyl)-N-(2-fluorobenzyl)-4-(((1-methyl-2-oxo-1,2-dihydropyridin-4-yl)oxy)methyl)-2-azabicyclo[2.1.1]hexane-2-carboxamide]
24 | 10 to 100 | COc1ccccc1NC(=O)N1CC2(COc3ccn(C)c(=O)c3)CC1(CNc1cccc3c(N)nccc13)C2 [Example 12059, 1-(((1-aminoisoquinolin-5-yl)amino)methyl)-N-(2-methoxyphenyl)-4-(((1-methyl-2-oxo-1,2-dihydropyridin-4-yl)oxy)methyl)-2-azabicyclo[2.1.1]hexane-2-carboxamide]
